The record followed here is patent US11155517B2, “4-substituted phenylamine derivatives and their use to protect crops by fighting undesired phytopathogenic micoorganisms” (PI INDUSTRIES LTD., priority 2016, dated 2021).

Type in all cases: cell-based
For one assay, the system named is Pyricularia oryzae. Put plainly: microbe, parasite or virus in culture. The settings on record: 168 h, read-out: % control compared to the untreated check (radial growth).
The next assay deals with Botrytis cinerea. Put plainly: Botrytis cinerea (gray mold) in vitro test, radial growth on Potato Dextrose Agar. Conditions: 168 h, 300 ppm, seven days, 22° C., read-out: % (control) compared to the untreated check (radial growth).
In another assay the test system is Alternaria solani. The assay can be described thus: Alternaria solani (early blight of tomato/potato) in vitro test, radial growth on Potato Dextrose Agar. The settings on record: 168 h, 300 ppm, seven days, 25° C., read-out: % control compared to the untreated check (radial growth).
The subject of a further assay is Colletotrichum capsici. The assay can be described thus: Colletotrichum capsici (anthracnose) in vitro test, radial growth on Potato Dextrose Agar. Conditions: Colletotrichum truncatum, 168 h; 300 ppm; seven days, 25° C.; read-out: % control compared to the untreated check (radial growth).
The test system of a further assay is Fusarium culmorum. Put plainly: Fusarium culmorum (foot rot of cereals) in vitro test, radial growth on Potato Dextrose Agar. The settings on record: for inhibition of growth at 300 ppm: Fusarium culmorum, 168 h, read-out: % control compared to the untreated check (radial growth); for % control compared to the untreated check (radial growth): 300 ppm, seven days, 25° C.

For the next assay, the system named is Rhizoctonia solani. The assay can be described thus: Rhizoctonia solani (rice sheath blight/potato black scurf) in vitro test, radial growth on Potato Dextrose Agar. The settings on record: 168 h, 300 ppm, seven days, 25° C., read-out: % control compared to the untreated check (radial growth).
The next assay relates to Septoria lycopersici. Put plainly: Septoria lycopersici (leaf spot of tomato) in vitro test, radial growth on Potato Dextrose Agar. The settings on record: 168 h, seven days, 25° C., read-out: % control compared to the untreated check (radial growth).

Bounds are passed on as bounds.

For `CCN(C)C=Nc1cc(C)c(Cc2ccc(Cl)cc2)cc1Cl` [Compound 79, N′-(2-chloro-4-(4-chlorobenzyl)-5-methylphenyl)-N-ethyl-N-methylformimidamide], the inhibition of growth at 300 ppm with Pyricularia oryzae was greater than 75%; in the assay with Botrytis cinerea, greater than 80%; in the assay with Alternaria solani, greater than 75%; with Colletotrichum capsici it was greater than 80%; with Fusarium culmorum it was 75%; in the assay on Rhizoctonia solani, greater than 80%.
With `CCN(C)C=Nc1cc(C)c(Cc2ccc(F)cc2Cl)cc1Cl` [Compound 99, N′-(2-chloro-4-(2-chloro-4-fluorobenzyl)-5-methylphenyl)-N-ethyl-N-methylformimidamide], the inhibition of growth at 300 ppm in the assay on Pyricularia oryzae was greater than 75%; in the assay with Botrytis cinerea, greater than 80%; with Alternaria solani, greater than 75%; in the assay on Colletotrichum capsici, greater than 80%; with Fusarium culmorum it was 75%; with Rhizoctonia solani it was greater than 80%.
Turning to `CCN(C)C=Nc1cc(C)c(Cc2cccc(C(F)(F)F)c2)cc1Cl` [Compound 80, N′-(2-chloro-5-methyl-4-(3-(trifluoromethyl)benzyl)phenyl)-N-ethyl-N-methylformimidamide], the inhibition of growth at 300 ppm in the assay with Pyricularia oryzae is greater than 75%; in the assay on Botrytis cinerea, greater than 80%; in the assay with Alternaria solani it was greater than 75%; in the assay on Colletotrichum capsici, greater than 80%; in the assay on Fusarium culmorum it was 75%; in the assay on Rhizoctonia solani it was greater than 80%.
Consider `CCN(C)C=Nc1cc(C)c(C(C#N)c2ccc(F)cc2)cc1Cl` (centres unmarked) [Compound 189, N′-(2-chloro-4-(cyano(4-fluorophenyl)methyl)-5-methylphenyl)-N-ethyl-N-methylformimidamide], for which the inhibition of growth at 300 ppm in the assay on Pyricularia oryzae was greater than 75%; in the assay with Botrytis cinerea it was greater than 80%; in the assay on Fusarium culmorum it was 75%; in the assay with Rhizoctonia solani it was greater than 80%.
`CCN(C)C=Nc1cc(C)c(Cc2c(F)cccc2Cl)cc1C` [Compound 155, N′-(4-(2-chloro-6-fluorobenzyl)-2,5-dimethylphenyl)-N-ethyl-N-methylformimidamide]: the inhibition of growth at 300 ppm in the assay on Pyricularia oryzae was greater than 75%; with Botrytis cinerea it was greater than 80%; in the assay with Alternaria solani, greater than 75%; in the assay on Colletotrichum capsici it was greater than 80%; in the assay on Fusarium culmorum, 75%; with Rhizoctonia solani, greater than 80%.
For `CCN(C)C=Nc1cc(C)c(Cc2ccc(OC(F)(F)F)cc2)cc1Cl` [Compound 121, N′-(2-chloro-5-methyl-4-(4-(trifluoromethoxy)benzyl)phenyl)-N-ethyl-N-methylformimidamide], the inhibition of growth at 300 ppm in the assay on Pyricularia oryzae is greater than 75%; in the assay with Botrytis cinerea, greater than 80%; with Alternaria solani, greater than 75%; in the assay with Colletotrichum capsici it was greater than 80%; with Fusarium culmorum it was 75%; with Rhizoctonia solani, greater than 80%.
Regarding `CCN(C)C=Nc1cc(Cl)c(C(C)(C(=O)N(C)C)c2cccc(F)c2)cc1C` (centres unmarked) [Compound 239, 2-(2-chloro-4-(((ethyl(methyl)amino)methylene)amino)-5-methylphenyl)-2-(3-fluorophenyl)-N,N-dimethylpropanamide], the inhibition of growth at 300 ppm with Pyricularia oryzae was greater than 75%; in the assay with Botrytis cinerea, greater than 80%; in the assay on Alternaria solani, greater than 75%; in the assay on Colletotrichum capsici, greater than 80%; in the assay on Fusarium culmorum, 75%; with Rhizoctonia solani it was greater than 80%.
For `Cc1cc(N=CN(C)CC2CC2)c(C)cc1Cc1ccccc1F` [Compound 87, N-(cyclopropylmethyl)-N-(4-(2-fluorobenzyl)-2,5-dimethylphenyl)-N-methylformimidamide], the “% control compared to the untreated check (radial growth)” value (shortened to “% control”) in the assay on Fusarium culmorum turned out to be 75%.
Regarding `CCN(C)C=Nc1ccc(Cc2ccccc2Cl)cc1` [Compound 164, N′-(4-(2-chlorobenzyl)phenyl)-N-ethyl-N-methylformimidamide], the inhibition of growth at 300 ppm in the assay with Pyricularia oryzae was greater than 75%; with Botrytis cinerea, greater than 80%; with Alternaria solani, greater than 75%; in the assay on Colletotrichum capsici, greater than 80%; in the assay with Rhizoctonia solani, greater than 80%; with Septoria lycopersici it was greater than 70%.
Turning to `CCN(C)C=Nc1cc(C)c(Cc2cc(C(F)(F)F)ccc2Cl)cc1Cl` [Compound 168, N′-(2-chloro-4-(2-chloro-5-(trifluoromethyl)benzyl)-5-methylphenyl)-N-ethyl-N-methylformimidamide], the inhibition of growth at 300 ppm in the assay with Pyricularia oryzae was greater than 75%; in the assay with Botrytis cinerea, greater than 80%; in the assay with Alternaria solani it was greater than 75%; in the assay with Colletotrichum capsici it was greater than 80%; in the assay with Rhizoctonia solani it was greater than 80%; with Septoria lycopersici it was greater than 70%.
Consider `CCN(C)C=Nc1cc(C)c(Cc2ccc(Cl)c(OC(F)(F)F)c2)cc1Cl` [Compound 177, N′-(2-chloro-4-(4-chloro-3-(trifluoromethoxy)benzyl)-5-methylphenyl)-N-ethyl-N-methylformimidamide], for which the inhibition of growth at 300 ppm in the assay with Pyricularia oryzae is greater than 75%; in the assay with Botrytis cinerea, greater than 80%; with Alternaria solani, greater than 75%; with Colletotrichum capsici, greater than 80%; in the assay with Rhizoctonia solani, greater than 80%; with Septoria lycopersici it was greater than 70%.
As for `CCN(C)C=Nc1cc(C#N)c(Cc2ccccc2Cl)cc1C` [Compound 246, N′-(4-(2-chlorobenzyl)-5-cyano-2-methylphenyl)-N-ethyl-N-methylformimidamide], the inhibition of growth at 300 ppm in the assay with Pyricularia oryzae was greater than 75%; with Botrytis cinerea, greater than 80%; with Alternaria solani, greater than 75%; in the assay on Colletotrichum capsici, greater than 80%; with Rhizoctonia solani it was greater than 80%; with Septoria lycopersici it was greater than 70%.
In the case of `CCN(C)C=Nc1cc(F)c(Cc2ccc(C)cc2)cc1F` [Compound 245, N′-(2,5-difluoro-4-(4-methylbenzyl)phenyl)-N-ethyl-N-methylformimidamide], the inhibition of growth at 300 ppm in the assay on Pyricularia oryzae is greater than 75%; in the assay with Botrytis cinerea, greater than 80%; with Alternaria solani, greater than 75%; in the assay on Colletotrichum capsici it was greater than 80%; in the assay on Rhizoctonia solani, greater than 80%; with Septoria lycopersici it was greater than 70%.
Regarding `CCN(C)C=Nc1cc(F)c(Cc2ccccc2Cl)cc1F` [Compound 253, N′-(4-(2-chlorobenzyl)-2,5-difluorophenyl)-N-ethyl-N-methylformimidamide], the inhibition of growth at 300 ppm was greater than 75% in the assay on Pyricularia oryzae; greater than 80% in the assay on Botrytis cinerea; greater than 75% in the assay with Alternaria solani; 75% in the assay on Fusarium culmorum; greater than 80% in the assay with Rhizoctonia solani.
Regarding `CCN(C)C=Nc1cc(C)c(Cc2cc(C(F)(F)F)cc(Cl)c2F)cc1C` [Compound 134, N′-(4-(3-chloro-2-fluoro-5-(trifluoromethyl)benzyl)-2,5-dimethylphenyl)-N-ethyl-N-methylformimidamide], the inhibition of growth at 300 ppm in the assay on Pyricularia oryzae is greater than 75%; in the assay with Botrytis cinerea, greater than 80%; in the assay with Alternaria solani it was greater than 75%; in the assay on Colletotrichum capsici, greater than 80%; in the assay on Rhizoctonia solani, greater than 80%; with Septoria lycopersici, greater than 70%.
As to `Cc1cc(N=CN2CCSCC2)c(C)cc1Cc1ccccc1Cl` [Compound 86, N-(4-(2-chlorobenzyl)-2,5-dimethylphenyl)-1-thiomorpholinomethanimine], the inhibition of growth at 300 ppm in the assay on Pyricularia oryzae was greater than 75%; with Botrytis cinerea, greater than 80%; with Alternaria solani, greater than 75%; with Colletotrichum capsici, greater than 80%; in the assay on Rhizoctonia solani, greater than 80%; in the assay with Septoria lycopersici it was greater than 70%.
As for `CCN(C)C=Nc1ccc(Cc2ccccc2Cl)c2ccccc12` [Compound 270, N′-(4-(2-chlorobenzyl)naphthalen-1-yl)-N-ethyl-N-methylformimidamide], the inhibition of growth at 300 ppm in the assay with Pyricularia oryzae was greater than 75%; in the assay on Botrytis cinerea, greater than 80%; with Alternaria solani it was greater than 75%; with Colletotrichum capsici, greater than 80%; with Rhizoctonia solani, greater than 80%; with Septoria lycopersici, greater than 70%.
Consider `CCN(C)C=Nc1cc(C)c(Cc2cccc(C)c2C)cc1Cl` [Compound 170, N-(2-chloro-4-(2,3-dimethylbenzyl)-5-methylphenyl)-N-ethyl-N-methylformimidamide], for which the “% control” value in the assay on Fusarium culmorum turned out to be 75%.
In the case of `CCN(C)C=Nc1cc(C)c(Cc2ccc(C)cc2)cc1F` [Compound 211, N-ethyl-N-(2-fluoro-5-methyl-4-(4-methylbenzyl)phenyl)-N-methylformimidamide], the “% control” value in the assay with Fusarium culmorum was determined as 75%.
Take `CCN(C)C=Nc1cc(C)c(Cc2ccc(F)c(C(F)(F)F)c2)cc1Cl` [Compound 181, N′-(2-chloro-4-(4-fluoro-3-(trifluoromethyl)benzyl)-5-methylphenyl)-N-ethyl-N-methylformimidamide]: the inhibition of growth at 300 ppm in the assay with Pyricularia oryzae is greater than 75%; with Botrytis cinerea it was greater than 80%; with Alternaria solani it was greater than 75%; in the assay on Fusarium culmorum, 75%; in the assay on Rhizoctonia solani, greater than 80%.
